Experimental data as given in PMC5843811, “^44Sc for labeling of DOTA- and NODAGA-functionalized peptides: preclinical in vitro and in vivo investigations” (EJNMMI Radiopharmacy and Chemistry, 2016).
Read-outs that look alike come from different tables or passages of the source.

Experiments:
[1] = Biodistribution in U87MG tumor-bearing mice; type: in vivo; details: female, CD-1 nude (athymic nude), mouse, iv, total radioactivity, i.v. ~5 MBq (~1 nmol), mean ± SD; for tissue to tissue ratio at 0.5 h / tissue uptake at 0.5 h: 30 min p.i.; for tissue to tissue ratio at 2 h / tissue uptake at 2 h: 2 h p.i.; for tissue to tissue ratio at 5 h / tissue uptake at 5 h: 5 h p.i.
Protocol: Female athymic nude mice (CD-1 nude), age 5–6 weeks, were obtained from Charles River Laboratories, Sulzfeld, Germany. U87MG cells and AR42J-cells were suspended in PBS (5 × 10^6 cells in 100 μL) and subcutaneously inoculated on each shoulder. Two to three weeks later, when the tumor reached a size of about 300–500 mm^3, the mice were used for the in vivo studies.
Biodistribution studies were performed with U87MG tumor and AR42J tumor-bearing mice 2 weeks after tumor cell inoculation. ^44Sc- and ^68Ga-labeled peptides (~5 MBq, ~1 nmol per mouse) were intravenously injected in a volume of 100–200 μL. Mice were sacrificed at 30 min, 2 h and 5 h after injection (p.i.) of the ^44Sc-labeled peptides. Mice which were injected with ^68Ga-labeled peptides were sacrificed at 30 min and 2 h p.i. Selected tissues and organs were collected, weighed, and counted for radioactivity using a γ-counter (Wallac Wizard 1480, Perkin Elmer). The results were listed as a percentage of the injected activity per gram of tissue mass (% IA/g), using counts of a defined volume of the original injection solution counted at the same time. The data were analyzed for significance using a two-way ANOVA test (Graph Pad Prism 6 software, version 6.05). A p-value of < 0.05 was considered statistically significant.

U87MG tumor-bearing mice = assay: PET/CT imaging of U87MG tumor-bearing mice; type: in vivo; details: 3 h after i.v. injection of ~10 MBq (~1 nmol), one or two mice
Protocol: The energy window was set to 150–650 keV. […] All static PET scans lasted for 20 min.

[2] = U87MG tumor / blood, n=3, read-out: Tumor-to-blood ratio
[3] = U87MG tumor / kidneys, n=3, read-out: Tumor-to-kidney ratio
[4] = U87MG tumor / liver, n=3, read-out: Tumor-to-liver ratio
[5] = U87MG tumor, n=3, read-out: Biodistribution, U87MG Tumor
[6] = blood, 5 MBq per mouse, n=3, read-out: Biodistribution, Blood
[7] = bone, 5 MBq per mouse, n=3, read-out: Biodistribution, Bone
[8] = brain, 5 MBq per mouse, n=3, read-out: Biodistribution, Brain
[9] = heart, 5 MBq per mouse, n=3, read-out: Biodistribution, Heart
[10] = intestines, 5 MBq per mouse, n=3, read-out: Biodistribution, Intestines
[11] = kidneys, n=3, read-out: Biodistribution, Kidneys
[12] = liver, n=3, read-out: Biodistribution, Liver
[13] = lung, 5 MBq per mouse, n=3, read-out: Biodistribution, Lung
[14] = muscle, 5 MBq per mouse, n=3, read-out: Biodistribution, Muscle
[15] = pancreas, 5 MBq per mouse, n=3, read-out: Biodistribution, pancreas
[16] = skin, 5 MBq per mouse, n=3, read-out: Biodistribution, Skin
[17] = spleen, 5 MBq per mouse, n=3, read-out: Biodistribution, Spleen
[18] = stomach, 5 MBq per mouse, n=3, read-out: Biodistribution, Stomach

Compound `N=C(N)NCCC[C@@H]1NC(=O)[C@H](CCCCNC(=O)CN2CCN(CC(=O)O)CCN(CC(=O)O)CCN(CC(=O)O)CC2)NC(=O)[C@@H](Cc2ccccc2)NC(=O)[C@H](CC(=O)O)NC(=O)CNC1=O` [^44Sc-DOTA-RGD, metal not drawn] has a tissue to tissue ratio at 0.5 h [1, 2] of 4.82 ± 1.6, a tissue to tissue ratio at 2 h [1, 2] of 40.1 ± 15.6 and a tissue to tissue ratio at 5 h [1, 2] of 47.2 ± 18. For the same compound, the tissue to tissue ratio at 0.5 h [1, 3] was 1.16 ± 0.29, the tissue to tissue ratio at 2 h [1, 3] was 1.77 ± 0.13 and the tissue to tissue ratio at 5 h [1, 3] was 1.82 ± 0.21. It also gave a tissue to tissue ratio at 0.5 h [1, 4] of 0.99 ± 0.14, a tissue to tissue ratio at 2 h [1, 4] of 0.61 ± 0.04 and a tissue to tissue ratio at 5 h [1, 4] of 2.9 ± 0.38. For the same compound, the tissue uptake at 0.5 h [1, 5] was 4.88 ± 0.67 %ID/g, the tissue uptake at 2 h [1, 5] was 2.99 ± 0.16 %ID/g and the tissue uptake at 5 h [1, 5] was 3 ± 0.38 %ID/g. The tissue uptake at 0.5 h [1, 6] was 1.1 ± 0.29 %ID/g, the tissue uptake at 2 h [1, 6] was 0.08 ± 0.03 %ID/g and the tissue uptake at 5 h [1, 6] was 0.07 ± 0.03 %ID/g. It also gave a tissue uptake at 0.5 h [1, 7] of 1.17 ± 0.07 %ID/g, a tissue uptake at 2 h [1, 7] of 0.56 ± 0.03 %ID/g and a tissue uptake at 5 h [1, 7] of 0.52 ± 0.11 %ID/g. It also gave a tissue uptake at 0.5 h [1, 8] of 0.12 ± 0.05 %ID/g, a tissue uptake at 2 h [1, 8] of 0.06 ± 0.01 %ID/g and a tissue uptake at 5 h [1, 8] of 0.06 ± 0.01 %ID/g. For the same compound, the tissue uptake at 0.5 h [1, 9] was 0.96 ± 0.3 %ID/g, the tissue uptake at 2 h [1, 9] was 0.31 ± 0.04 %ID/g and the tissue uptake at 5 h [1, 9] was 0.3 ± 0.06 %ID/g. The tissue uptake at 0.5 h [1, 10] was 1.88 ± 0.18 %ID/g, the tissue uptake at 2 h [1, 10] was 1.01 ± 0.04 %ID/g and the tissue uptake at 5 h [1, 10] was 1.07 ± 0.04 %ID/g. For the same compound, the tissue uptake at 2 h ([1]; kidneys, 5 MBq per mouse, n=3, read-out: Biodistribution, Kidneys) was 1.69 ± 0.09 %ID/g, the tissue uptake at 0.5 h [1, 11] was 4.44 ± 0.51 %ID/g and the tissue uptake at 5 h [1, 11] was less than 2 %ID/g. It also gave a tissue uptake at 0.5 h [1, 12] of 5.16 ± 0.99 %ID/g, a tissue uptake at 2 h [1, 12] of 4.9 ± 0.13 %ID/g and a tissue uptake at 5 h [1, 12] of roughly 1 %ID/g. It also gave a tissue uptake at 0.5 h [1, 13] of 2.17 ± 0.7 %ID/g, a tissue uptake at 2 h [1, 13] of 0.72 ± 0.11 %ID/g and a tissue uptake at 5 h [1, 13] of 0.52 ± 0.04 %ID/g. The tissue uptake at 0.5 h [1, 14] was 0.66 ± 0.26 %ID/g, the tissue uptake at 5 h [1, 14] was 0.28 ± 0.04 %ID/g and the tissue uptake at 2 h [1, 15] was 0.35 ± 0.03 %ID/g. It also gave a tissue uptake at 5 h [1, 15] of 0.39 ± 0.02 %ID/g, a tissue uptake at 0.5 h ([1]; pancreas, n=3, read-out: Biodistribution, pancreas) of 0.94 ± 0.49 %ID/g and a tissue uptake at 0.5 h [1, 16] of 2.28 ± 0.39 %ID/g. For the same compound, the tissue uptake at 2 h [1, 16] was 1.23 ± 0.2 %ID/g, the tissue uptake at 5 h [1, 16] was 0.97 ± 0.06 %ID/g and the tissue uptake at 0.5 h [1, 17] was 3.66 ± 0.87 %ID/g. The tissue uptake at 2 h [1, 17] was 2.82 ± 0.28 %ID/g, the tissue uptake at 5 h [1, 17] was 1.06 ± 0.18 %ID/g and the tissue uptake at 0.5 h [1, 18] was 1.78 ± 0.23 %ID/g. For the same compound, the tissue uptake at 2 h [1, 18] was 0.84 ± 0.19 %ID/g, the tissue uptake at 5 h [1, 18] was 0.72 ± 0.07 %ID/g and the “PET/CT distribution of radioactivity (in words)” value (U87MG tumor-bearing mice) was “clearly less accumulation of radioactivity in the liver than ^68Ga-DOTA-RGD”.
